For this data set the following is noted: Capillary rise.

Numbers after ± are expanded uncertainties.

As usually defined, the surface tension liquid-gas is the force per length acting along the surface. `CCCCn1cc[n+](C)c1.[Cl-]` [1-butyl-3-methylimidazolium chloride]: the surface tension liquid-gas was 48.2 ± 1.4 mN/m (298 K); 47.8 ± 1.3 mN/m (303 K); 47.5 ± 1.3 mN/m (308 K); 47.2 ± 1.3 mN/m (313 K); 46.9 ± 1.3 mN/m (318 K); 46.6 ± 1.3 mN/m (323 K). Moreover, the surface tension liquid-gas is, setting by setting: (328 K) 46.3 ± 1.3 mN/m; (333 K) 46 ± 1.3 mN/m; (338 K) 45.6 ± 1.3 mN/m; (343 K) 45.3 ± 1.3 mN/m; (348 K) 45 ± 1.3 mN/m; (353 K) 44.7 ± 1.3 mN/m. Besides, the surface tension liquid-gas runs as follows: (358 K) 44.4 ± 1.3 mN/m; (363 K) 43.9 ± 1.3 mN/m; (368 K) 43.6 ± 1.3 mN/m; (373 K) 43.2 ± 1.2 mN/m; (378 K) 42.9 ± 1.2 mN/m; (383 K) 42.5 ± 1.2 mN/m. The surface tension liquid-gas by setting is: (388 K) 42.2 ± 1.2 mN/m; (393 K) 41.8 ± 1.2 mN/m.
With `CCCCn1cc[n+](C)c1.F[P-](F)(F)(F)(F)F` [1-butyl-3-methylimidazolium hexafluorophosphate], the surface tension liquid-gas is reported as 47.5 ± 1.3 mN/m (298 K); 47.2 ± 1.3 mN/m (303 K); 46.9 ± 1.3 mN/m (308 K); 46.5 ± 1.3 mN/m (313 K); 46 ± 1.3 mN/m (318 K); 45.6 ± 1.3 mN/m (323 K). Also, the surface tension liquid-gas amounted to 45.3 ± 1.3 mN/m (328 K); 44.9 ± 1.3 mN/m (333 K); 44.6 ± 1.3 mN/m (338 K); 44.3 ± 1.3 mN/m (343 K); 43.8 ± 1.3 mN/m (348 K); 43.5 ± 1.3 mN/m (353 K). The surface tension liquid-gas by setting is: (358 K) 43.1 ± 1.2 mN/m; (363 K) 42.8 ± 1.2 mN/m; (368 K) 42.4 ± 1.2 mN/m; (373 K) 42.1 ± 1.2 mN/m; (378 K) 41.7 ± 1.2 mN/m; (383 K) 41.3 ± 1.2 mN/m. Also, the surface tension liquid-gas (388 K) came to 41.1 ± 1.2 mN/m and the surface tension liquid-gas (393 K) is reported as 40.8 ± 1.2 mN/m.
Regarding `CCCCn1cc[n+](C)c1.[I-]` [1-butyl-3-methylimidazolium iodide], the surface tension liquid-gas is, setting by setting: (298 K) 53.3 ± 1.5 mN/m; (303 K) 52.9 ± 1.5 mN/m; (308 K) 52.5 ± 1.5 mN/m; (313 K) 52.1 ± 1.5 mN/m; (318 K) 51.5 ± 1.4 mN/m; (323 K) 51.1 ± 1.4 mN/m. Further, the surface tension liquid-gas came out at 50.7 ± 1.4 mN/m (328 K); 50.3 ± 1.4 mN/m (333 K); 49.9 ± 1.4 mN/m (338 K); 49.4 ± 1.4 mN/m (343 K); 49 ± 1.4 mN/m (348 K); 48.6 ± 1.4 mN/m (353 K). Moreover, the surface tension liquid-gas was 48.2 ± 1.4 mN/m (358 K); 47.8 ± 1.4 mN/m (363 K); 47.4 ± 1.3 mN/m (368 K); 47.1 ± 1.3 mN/m (373 K); 46.7 ± 1.3 mN/m (378 K); 46.3 ± 1.3 mN/m (383 K). Further, the surface tension liquid-gas by setting is: (388 K) 46 ± 1.3 mN/m; (393 K) 45.6 ± 1.3 mN/m.
Take `CCCCn1cc[n+](C)c1.F[B-](F)(F)F` [1-butyl-3-methylimidazolium tetrafluoroborate]: the surface tension liquid-gas is reported as 43.6 ± 1.3 mN/m (298 K); 43.3 ± 1.2 mN/m (303 K); 43 ± 1.2 mN/m (308 K); 42.7 ± 1.2 mN/m (313 K); 42.3 ± 1.2 mN/m (318 K); 42 ± 1.2 mN/m (323 K). The surface tension liquid-gas (328 K) came out at 41.8 ± 1.2 mN/m; the surface tension liquid-gas (333 K) was 41.5 ± 1.2 mN/m; the surface tension liquid-gas (338 K) is 41.2 ± 1.2 mN/m; the surface tension liquid-gas (343 K) came out at 40.9 ± 1.2 mN/m; the surface tension liquid-gas (348 K) stood at 40.7 ± 1.2 mN/m; the surface tension liquid-gas (353 K) is listed as 40.4 ± 1.2 mN/m. Moreover, the surface tension liquid-gas worked out at 40.2 ± 1.2 mN/m (358 K); 39.8 ± 1.2 mN/m (363 K); 39.5 ± 1.2 mN/m (368 K); 39.2 ± 1.2 mN/m (373 K); 39 ± 1.2 mN/m (378 K); 38.8 ± 1.1 mN/m (383 K). In addition, the surface tension liquid-gas is 38.5 ± 1.1 mN/m (388 K) and 38.2 ± 1.1 mN/m (393 K).
Turning to `CCCCCCn1cc[n+](C)c1.[Cl-]` [1-hexyl-3-methylimidazolium chloride], the surface tension liquid-gas is listed as 41.8 ± 1.2 mN/m (298 K); 41.5 ± 1.2 mN/m (303 K); 41.2 ± 1.2 mN/m (308 K); 40.8 ± 1.2 mN/m (313 K); 40.5 ± 1.2 mN/m (318 K); 40.2 ± 1.2 mN/m (323 K). The surface tension liquid-gas by setting is: (328 K) 40 ± 1.2 mN/m; (333 K) 39.8 ± 1.2 mN/m; (338 K) 39.4 ± 1.2 mN/m; (343 K) 39.1 ± 1.2 mN/m; (348 K) 38.8 ± 1.2 mN/m; (353 K) 38.5 ± 1.1 mN/m. Also, the surface tension liquid-gas is, setting by setting: (358 K) 38.3 ± 1.1 mN/m; (363 K) 37.9 ± 1.1 mN/m; (368 K) 37.7 ± 1.1 mN/m; (373 K) 37.4 ± 1.1 mN/m; (378 K) 37.1 ± 1.1 mN/m; (383 K) 36.8 ± 1.1 mN/m. The surface tension liquid-gas (388 K) is given as 36.5 ± 1.1 mN/m and the surface tension liquid-gas (393 K) is reported as 36.2 ± 1.1 mN/m.
For `CCCCCCn1cc[n+](C)c1.F[P-](F)(F)(F)(F)F` [1-hexyl-3-methylimidazolium hexafluorophosphate], the surface tension liquid-gas reads like this: (298 K) 43.4 ± 1.3 mN/m; (303 K) 43 ± 1.2 mN/m; (308 K) 42.6 ± 1.2 mN/m; (313 K) 42.3 ± 1.2 mN/m; (318 K) 41.9 ± 1.2 mN/m; (323 K) 41.5 ± 1.2 mN/m. Also, the surface tension liquid-gas is reported as 41.1 ± 1.2 mN/m (328 K); 40.8 ± 1.2 mN/m (333 K); 40.5 ± 1.2 mN/m (338 K); 40.2 ± 1.2 mN/m (343 K); 39.8 ± 1.2 mN/m (348 K); 39.5 ± 1.2 mN/m (353 K). For the same compound, the surface tension liquid-gas is, setting by setting: (358 K) 39.1 ± 1.2 mN/m; (363 K) 38.8 ± 1.2 mN/m.
For `CCCCCCn1cc[n+](C)c1.[I-]` [1-hexyl-3-methylimidazolium iodide], the surface tension liquid-gas (298 K) was determined as 43.5 ± 1.3 mN/m; the surface tension liquid-gas (303 K) is listed as 43.1 ± 1.2 mN/m; the surface tension liquid-gas (308 K) turned out to be 42.7 ± 1.2 mN/m; the surface tension liquid-gas (313 K) came out at 42.3 ± 1.2 mN/m; the surface tension liquid-gas (318 K) is listed as 41.9 ± 1.2 mN/m; the surface tension liquid-gas (323 K) was 41.5 ± 1.2 mN/m. For the same compound, the surface tension liquid-gas (328 K) is listed as 41.1 ± 1.2 mN/m; the surface tension liquid-gas (333 K) is on record as 40.8 ± 1.2 mN/m; the surface tension liquid-gas (338 K) was determined as 40.4 ± 1.2 mN/m; the surface tension liquid-gas (343 K) worked out at 40.1 ± 1.2 mN/m; the surface tension liquid-gas (348 K) is 39.7 ± 1.2 mN/m; the surface tension liquid-gas (353 K) stood at 39.4 ± 1.2 mN/m. Besides, the surface tension liquid-gas (358 K) worked out at 39 ± 1.2 mN/m; the surface tension liquid-gas (363 K) turned out to be 38.6 ± 1.1 mN/m; the surface tension liquid-gas (368 K) is recorded as 38.3 ± 1.1 mN/m; the surface tension liquid-gas (373 K) stood at 37.9 ± 1.1 mN/m; the surface tension liquid-gas (378 K) was determined as 37.6 ± 1.1 mN/m; the surface tension liquid-gas (383 K) is reported as 37.2 ± 1.1 mN/m. For the same compound, the surface tension liquid-gas reads like this: (388 K) 36.8 ± 1.1 mN/m; (393 K) 36.5 ± 1.1 mN/m.
On to `CCCCCCn1cc[n+](C)c1.F[B-](F)(F)F` [1-hexyl-3-methylimidazolium tetrafluoroborate], for which the surface tension liquid-gas stood at 39.2 ± 1.2 mN/m (298 K); 38.9 ± 1.2 mN/m (303 K); 38.7 ± 1.1 mN/m (308 K); 38.4 ± 1.1 mN/m (313 K); 38.1 ± 1.1 mN/m (318 K); 37.9 ± 1.1 mN/m (323 K). Besides, the surface tension liquid-gas came out at 37.7 ± 1.1 mN/m (328 K); 37.5 ± 1.1 mN/m (333 K); 37.2 ± 1.1 mN/m (338 K); 36.9 ± 1.1 mN/m (343 K); 36.6 ± 1.1 mN/m (348 K); 36.4 ± 1.1 mN/m (353 K). Also, the surface tension liquid-gas by setting is: (358 K) 36.2 ± 1.1 mN/m; (363 K) 35.8 ± 1.1 mN/m; (368 K) 35.6 ± 1.1 mN/m; (373 K) 35.4 ± 1.1 mN/m; (378 K) 35.1 ± 1.1 mN/m; (383 K) 34.9 ± 1.1 mN/m. The surface tension liquid-gas came to 34.6 ± 1.1 mN/m (388 K) and 34.3 ± 1.1 mN/m (393 K).

Source of the values: the NIST ThermoML archive (doi:10.1016/j.fluid.2007.10.004).
